Measurements: patent US11690810B2, “Combination treatment of bacterial infection” (The Chinese University of Hong Kong, priority 2018, dated 2023)
In brackets after ≈: the same amount, converted by molar mass.

How the values were obtained:
[1] = tested on: S. aureus SA-APH3′ (APH3), resistant to kanamycin; assay: MIC and checkerboard (FIC) assay; details: Staphylococcus aureus
Solubility = details: MIC test medium
[2] = tested on: panel of laboratory MRSA strains; assay: MIC and combination tests, panel of laboratory strains; details: tanshinone highest tested concentration 128 μg/ml
[3] = tested on: S. aureus SA-RN4220-pUL5054 (RN4220); assay: MIC and checkerboard (FIC) assay; details: Staphylococcus aureus
[4] = tested on: S. aureus ATCC25923 (methicillin sensitive); assay: MIC and checkerboard (FIC) assay; details: Staphylococcus aureus
MRSA SA-ST239 = assay: MIC and checkerboard (FIC) assay
[5] = tested on: S. aureus SA-APH2″-AAC6′ (APH2), resistant to gentamicin; assay: MIC and checkerboard (FIC) assay; details: Staphylococcus aureus
[6] = tested on: S. aureus SA-1199B (NorA efflux pump overexpressed); assay: MIC and checkerboard (FIC) assay; details: Staphylococcus aureus
[7] = tested on: S. aureus SA-ANT4′ (ANT4), resistant to fusidic acid; assay: MIC and checkerboard (FIC) assay; details: Staphylococcus aureus
HA MRSA W231 = assay: MIC and checkerboard (FIC) assay
CA MRSA W48 = assay: MIC and checkerboard (FIC) assay
HA MRSA W233 = assay: MIC and checkerboard (FIC) assay
[8] = tested on: clinical community-associated (CA) and hospital-associated (HA) MRSA strains; assay: MIC and combination tests, panel of clinical strains
HA MRSA W239 = assay: MIC and checkerboard (FIC) assay
physchem = details: saline or isotonic
CA-MRSA strain ST30 = assay: MIC and checkerboard (FIC) assay; format: cell-based, Staphylococcus aureus
CA MRSA W46 = assay: MIC and checkerboard (FIC) assay
CA MRSA W47 = assay: MIC and checkerboard (FIC) assay
clinical MRSA ST239 = assay: Mouse pneumonia model, ST239 (neutropenic mice); format: in vivo, Balb/c mice; details: mouse, in vivo
[9] = tested on: methicillin sensitive Staphylococcus aureus ATCC25923; assay: Mouse pneumonia model, ATCC25923 (neutropenic mice); format: in vivo, Balb/c mice
CA MRSA W44 = assay: MIC and checkerboard (FIC) assay
[10] = tested on: Panton-Valentine leukocidin positive CA-MRSA strain ST30; format: in vivo, Balb/c mice; details: mouse, in vivo
HA MRSA W232 = assay: MIC and checkerboard (FIC) assay
CA MRSA W45 = assay: MIC and checkerboard (FIC) assay
HA MRSA W238 = assay: MIC and checkerboard (FIC) assay
[11] = Staphylococcus aureus, MRSA, read-out: MIC alone

For `Cc1coc2c1C(=O)C(=O)c1c-2ccc2c(C)cccc12` [Tanshinone, tanshinone], the MIC90 [1] was > 128 µg/mL, the MIC99 ([1]; read-out: MIC 99.9) was > 128 µg/mL and the solubility (Solubility) was “poor”. For the same compound, the “activity against the tested MRSA strains when used alone” value [2] was “ineffective”, the MIC90 [3] was > 128 µg/mL and the MIC99 ([3]; read-out: MIC 99.9) was > 128 µg/mL. The MIC90 ([4]; ATCC25923) was > 128 µg/mL, the MIC99 ([4]; ATCC25923, read-out: MIC 99.9) was > 128 µg/mL and the MIC90 (MRSA SA-ST239; Staphylococcus aureus, MRSA) was > 128 µg/mL. For the same compound, the MIC99 (MRSA SA-ST239; Staphylococcus aureus, MRSA, read-out: MIC 99.9) was > 128 µg/mL, the MIC90 [5] was > 128 µg/mL and the MIC99 ([5]; read-out: MIC 99.9) was > 128 µg/mL. For the same compound, the MIC90 [6] was > 128 µg/mL, the MIC99 ([6]; read-out: MIC 99.9) was > 128 µg/mL and the MIC90 [7] was > 128 µg/mL. The MIC99 ([7]; read-out: MIC 99.9) was > 128 µg/mL.
`CN[C@H](CC(C)C)C(=O)N[C@H]1C(=O)N[C@@H](CC(N)=O)C(=O)N[C@H]2C(=O)N[C@H]3C(=O)N[C@H](C(=O)N[C@H](C(=O)O)c4cc(O)cc(O)c4-c4cc3ccc4O)[C@H](O)c3ccc(c(Cl)c3)Oc3cc2cc(c3O[C@@H]2O[C@H](CO)[C@@H](O)[C@H](O)[C@H]2O[C@H]2C[C@](C)(N)[C@H](O)[C@H](C)O2)Oc2ccc(cc2Cl)[C@H]1O` [Vancomycin, vancomycin, reference compound] showed an MIC (HA MRSA W231; [11]) of 1 µg/mL, an MIC combine (HA MRSA W231; W231, ECG+Kur+Van) of 0.5 µg/mL and an MIC (CA MRSA W48; [11]) of 1 µg/mL. For the same compound, the FIC (CA MRSA W48; W48, ECG+Kur+Van) was 0.5, the MIC combine (CA MRSA W48; W48, ECG+Kur+Van) was 0.5 µg/mL and the MIC (HA MRSA W233; [11]) was 1 µg/mL. It also gave an FIC (HA MRSA W233; W233, ECG+Kur+Van) of 0.5, an MIC combine (HA MRSA W233; W233, ECG+Kur+Van) of 0.5 µg/mL and an MIC ([8]; Staphylococcus aureus, MRSA, read-out: MIC of vancomycin alone) of 1 µg/mL. The “MIC of vancomycin with ECG and kuraridin combined treatment” value ([8]; panel of clinical strains (Table 5)) was 0.5 µg/mL, the MIC (HA MRSA W239; [11]) was 1 µg/mL and the FIC (HA MRSA W239; W239, ECG+Kur+Van) was 0.5. The MIC combine (HA MRSA W239; W239, ECG+Kur+Van) was 0.5 µg/mL, the solubility (physchem) was 20 mg/mL (≈ 13.8 mM) and the FIC (CA-MRSA strain ST30; ST30, ECG+Kur+Van) was 0.5. It also gave an MIC combine (CA-MRSA strain ST30; ST30, ECG+Kur+Van) of 0.5 µg/mL, an MIC (CA-MRSA strain ST30; [11]) of 1 µg/mL and an MIC (CA MRSA W46; [11]) of 1 µg/mL. The FIC (CA MRSA W46; W46, ECG+Kur+Van) was 0.5, the MIC combine (CA MRSA W46; W46, ECG+Kur+Van) was 0.5 µg/mL and the MIC (CA MRSA W47; [11]) was 1 µg/mL. For the same compound, the FIC (CA MRSA W47; W47, ECG+Kur+Van) was 0.25, the MIC combine (CA MRSA W47; W47, ECG+Kur+Van) was 0.25 µg/mL and the “mean bacteria counts (left lung)” value (clinical MRSA ST239) was 4.73±0.26 log CFU. For the same compound, the “lung tissue profiles (histology) vs control” value [9] was “fewer lesions”, the “mean bacteria counts (left lung)” value ([9]; vancomycin 60 mg/kg, ECG 120 mg/kg, kuraridin 120 mg/kg, 48 h, control 8.909±0.101) was 6.064±0.425 log CFU and the MIC (CA MRSA W44; [11]) was 1 µg/mL. For the same compound, the FIC (CA MRSA W44; W44, ECG+Kur+Van) was 0.5, the MIC combine (CA MRSA W44; W44, ECG+Kur+Van) was 0.5 µg/mL and the “expression levels of TNFα, IL-1β, and IL-6 from lung homogenates” value [10] was “significantly lowered”. The “lung tissue profiles (histology) vs control” value [10] was “fewer lesions”, the survival rate [10] was 100% and the MIC (HA MRSA W232; [11]) was 1 µg/mL. It also gave an FIC (HA MRSA W232; W232, ECG+Kur+Van) of 0.5, an MIC combine (HA MRSA W232; W232, ECG+Kur+Van) of 0.5 µg/mL and an FIC (MRSA SA-ST239; ST239, ECG+Kur+Van) of 0.5. The MIC combine (MRSA SA-ST239; ST239, ECG+Kur+Van) was 0.5 µg/mL, the MIC (MRSA SA-ST239; [11]) was 1 µg/mL and the MIC (CA MRSA W45; [11]) was 1 µg/mL. For the same compound, the FIC (CA MRSA W45; W45, ECG+Kur+Van) was 0.5, the MIC combine (CA MRSA W45; W45, ECG+Kur+Van) was 0.5 µg/mL and the MIC (HA MRSA W238; [11]) was 1 µg/mL. It also gave an FIC (HA MRSA W238; W238, ECG+Kur+Van) of 0.5 and an MIC combine (HA MRSA W238; W238, ECG+Kur+Van) of 0.5 µg/mL.
